Measurements as given in patent US4710500A, “1-(4'-fluorophenyl)-3,5-substituted indoles useful in the treatment of psychic disorders and pharmaceutical compositions thereof” (H. Lundbeck A/S, priority 1985, dated 1987).
Read-outs that look alike come from different tables or passages of the source.

Experiments:
[1] = system: methylphenidate-induced gnawing; assay: Methylphenidate antagonism; assay type: in vivo, mice; conditions: for ED50: Mus musculus
5-HT2 receptor = target: T1, 5-HT2 receptor (Rattus norvegicus, UniProt P14842); assay: Quipazine inhibition (head twitches); assay type: in vivo; conditions: sc 2 hours before quipazine 15 umol/kg sc
T1 construct: from tissue; host or cells: living rats (in vivo), CNS
Protocol: Quipazine and a number of other compounds, which increase 5-HT2 receptor activity in the CNS, induce a characteristic rapid shake (twitch) of the head. This response is inhibited by 5-HT2 receptor antagonists (Vetulani et al. 1980, Arnt et al. 1984).
The test compound or saline is injected subcutaneously 2 hours before subcutaneous injection of quipazine hemimalecate (15umol/kg). At least 3 dose groups, each consisting of at least 4 rats, are used. The rats are individually placed in observation cages (12×25 cm) and the number of head twitches are counted 30-40 min after quipazine administration. Inhibition of head twitches is expressed in per cent of the number of head twitches in the control group. ED 50 values are calculated by log-probit analysis.
Vetulani, J., B.B. Beduarczyk, K. Reichenberg and A. Rokost: Neuropharmacology 19, 155-158, […].
(§1) Arnt, J., J. Hyttel and J.-J. Larsen: Acta pharmacol. et toxicol. 55, 363-372, 1984.

in vivo = conditions: mouse, iv
Catalepsy = assay type: in vivo, rat
[2] = target: T2, dopamine (DA) D-2 receptors (Rattus norvegicus, UniProt P61169); assay: 3H-spiroperidol binding, dopamine D-2 receptors in rat striatal membranes
T2 construct: DA D-2 receptors in rat striatal membranes; from tissue; host or cells: rat striatal membranes
Protocol: (§2) 4. ^3 H-spiroperidol bindings
The affinity of compounds to dopamine (DA) D-2 receptors and serotomin2 (5-HT2) receptors was determined by in vitro receptor binding technique.
Arnt, J., J. Hyttel and J.-J. Larsen: Acta pharmacol. et toxicol.

[3] = target: T3, serotomin2 (5-HT2) receptors (Rattus norvegicus, UniProt P14842); assay: 3H-spiroperidol binding, 5-HT2 receptors in rat cortical membranes; conditions: in vitro, read-out: 3H-Spiroperidol bindings 5-HT2 receptors IC50
T3 construct: 5-HT2 receptors in rat cortical membranes; from tissue; host or cells: rat cortical membranes
Protocol: as §2
The affinity of compounds to dopamine (DA) D-2 receptors and serotomin2 (5-HT2) receptors was determined by in vitro receptor binding technique. Binding of ^3 H-spiroperidol to DA D-2 receptors in rat striatal membranes and to 5-HT2 receptors in rat cortical membranes was determined as described in detail by Arnt et al. (1984).
as §1

[4] = i.v., mice; compared with known neuroleptics
[5] = pharmacological testing (general statements); conditions: result in words
Protocol: The compounds of Formula I were tested according to reliable and well recognized pharmacological tests as follows: […]

[6] = i.p. test substance, mice, methylphenidate s.c. 60 mg/kg
[7] = rat striatal membranes, in vitro, read-out: 3H-Spiroperidol bindings DA-2 receptors IC50
[8] = Rattus norvegicus, sc, 24 h, read-out: Catalep. ED50 (sc) 24 h

T3 sequence (P14842 whole entry): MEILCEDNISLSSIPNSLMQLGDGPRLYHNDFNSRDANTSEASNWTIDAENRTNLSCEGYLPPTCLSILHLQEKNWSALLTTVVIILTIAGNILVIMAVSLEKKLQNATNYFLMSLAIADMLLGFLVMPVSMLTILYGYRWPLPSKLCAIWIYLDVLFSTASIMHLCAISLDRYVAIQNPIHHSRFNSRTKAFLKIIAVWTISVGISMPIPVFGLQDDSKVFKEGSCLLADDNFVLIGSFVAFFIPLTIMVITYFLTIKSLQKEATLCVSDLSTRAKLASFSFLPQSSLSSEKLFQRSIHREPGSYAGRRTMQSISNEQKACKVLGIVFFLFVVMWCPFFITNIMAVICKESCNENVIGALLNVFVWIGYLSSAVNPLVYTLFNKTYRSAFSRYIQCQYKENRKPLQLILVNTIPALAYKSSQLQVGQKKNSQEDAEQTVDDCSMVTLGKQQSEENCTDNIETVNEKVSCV
T1 sequence (P14842 whole entry): as above
T2 sequence (P61169 whole entry): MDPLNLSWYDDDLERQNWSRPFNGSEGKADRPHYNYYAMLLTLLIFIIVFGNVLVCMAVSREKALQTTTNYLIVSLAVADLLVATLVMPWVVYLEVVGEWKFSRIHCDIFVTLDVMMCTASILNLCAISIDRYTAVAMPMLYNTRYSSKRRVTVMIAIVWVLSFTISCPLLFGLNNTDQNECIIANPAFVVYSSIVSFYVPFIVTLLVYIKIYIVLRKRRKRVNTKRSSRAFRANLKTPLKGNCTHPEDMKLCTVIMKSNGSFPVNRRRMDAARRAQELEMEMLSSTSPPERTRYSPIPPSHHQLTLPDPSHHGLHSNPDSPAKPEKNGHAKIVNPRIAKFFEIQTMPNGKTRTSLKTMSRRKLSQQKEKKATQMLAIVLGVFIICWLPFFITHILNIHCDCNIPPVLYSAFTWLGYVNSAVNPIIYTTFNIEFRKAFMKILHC

| Compound | MePh Antg. ED50(ip) [1, 6] [µmol/kg] | Qvipaz. inh. ED50(sc) (5-HT2 receptor) [µmol/kg] | LD50 (in vivo) [µmol/kg] | Catalep. ED50(po) 1-6 h (Catalepsy; po, rat, 1-6 h) [µmol/kg] | Catalep. ED50(po) 24 h (Catalepsy; po, rat, 24 h) [µmol/kg] | IC50 [2, 7] [nM] | IC50 [3] [nM] | ED50 ([1]; ip, i.p. test substance, mice, methylphenidate s.c. 60 mg/kg, read-out: MePh Antg. ED50(ip)) [µmol/kg] | ED50 (Catalepsy; read-out: Catalep. ED50(po) 1-6 h, po, rat, 1-6 h) [µmol/kg] | ED50 (Catalepsy; read-out: Catalep. ED50(po) 24 h, po, rat, 24 h) [µmol/kg] | acute toxicity [4] | ED50 ([1]; ip, read-out: MePh Antg. ED50(ip)) [µmol/kg] | ED50 (Catalepsy; Rattus norvegicus, po, read-out: Catalep. ED50(po) 1-6 h) [µmol/kg] | ED50 (Catalepsy; [8]) [µmol/kg] | IC50 [2] [nM] | effects in the pharmacological testing [5] | ED50 ([1]; sc, read-out: MePh Antg. ED50 (sc)) [µmol/kg] | ED50 (Catalepsy; Rattus norvegicus, sc, read-out: Catalep. ED50 (sc) 1-6 h) [µmol/kg] |
| --- | --- | --- | --- | --- | --- | --- | --- | --- | --- | --- | --- | --- | --- | --- | --- | --- | --- | --- |
| OCCN1CCN([C@@H]2C[C@@H](c3ccc(F)cc3)c3ccc(C(F)(F)F)cc32)CC1 (racemic) [Tefludazine, reference compound] | 0.06 | 0.06 | 120 to 180 | 0.61 | 0.9 | 19 | 8.6 | – | – | – | – | – | – | – | – | – | – | – |
| OCCN1CCN(c2cn(-c3ccc(F)cc3)c3ccc(C(F)(F)F)cc23)CC1 [Lu 21-152, 1-(4'-Flurophenyl)-3-(4-(2-hydroxyethyl)-piperazino)-5-trifluoromethyl-1H-indole] | – | 0.023 | 147 | – | – | 2.8 | 7.4 | 0.11 | 0.17 | 0.28 | comparatively low acute toxicity | – | – | – | – | – | – | – |
| CN1CC=C(c2cn(-c3ccc(F)cc3)c3ccc([N+](=O)[O-])cc23)CC1 [Lu 22-135, 1-(4'-Fluorophenyl)-5-nitro-3-(1-methyl-1,2,3,6-tetrahydropyridin-4-yl)-1H-indole] | – | 0.009 | 276 | – | – | – | 1.9 | – | – | – | comparatively low acute toxicity | 0.1 | 0.078 | > 0.89 | 1.1 | – | – | – |
| CN1CCN(c2cn(-c3ccccc3)c3ccc(Cl)cc23)CC1 [Lu 23-015, 5-Chloro-3-(4-methylpiperazino)-1-phenyl-1H-indole, reference compound] | 8.8 | 0.062 | – | 12.0 | > 15 | 12 | 3.9 | – | – | – | – | – | – | – | – | without interesting effects | – | – |
| OCCN1CC=C(c2c[nH]c3ccc(Cl)cc23)CC1 [Lu 23-143, 5-chloro-3-(1-(2-hydroxyethyl)-1,2,3,6-tetrahydropyrid-4-yl)indol, reference compound] | – | 4.5 | – | – | – | – | – | – | – | – | – | – | – | > 18 | – | almost inactive compared with the compounds of Formula I | 72 | > 18 |
